≈ marks a conversion by molar mass, not a printed value. Where “and” joins values, the source holds several entries; their conditions need not be identical. Equal entries are not always repeated. Entries after “also recorded” stand apart in the source; their conditions may differ. Where two headings read alike, the source gives them in different places.
Experiments:
[1] = tested on: HMC-1.2 cells; assay: cells; conditions: Homo sapiens, read-out: IC50, 3H-thymidine uptake in HMC-1.2 cells
[2] = tested on: HMC-1.1 cells; assay: cells; conditions: Homo sapiens, read-out: IC50, 3H-thymidine uptake in HMC-1.1 cells
[3] = tested on: HMC-1.2 cells
[4] = tested on: HMC-1.2 cells; assay: Apoptosis in HMC-1.2 cells (light and electron microscopy, annexin V/PI, Tunel); format: cell-based, human; conditions: 24 hours; for apoptosis in HMC-1.2 cells by light microscopy: various concentrations
[5] = tested on: HMC-1.1 cells; assay: Apoptosis in HMC-1.1 cells (light and electron microscopy, Tunel); conditions: 24 hours; for apoptosis in HMC-1.1 cells by Tunel assay: 1 μM; for apoptosis in HMC-1.1 cells by light microscopy: various concentrations
[6] = tested on: Ton.Kit.wt cells (Ba/F3 with inducible wt KIT); assay: cells; conditions: Mus musculus, BaF3, 48 h, read-out: IC50, SCF-dependent growth of doxycycline-exposed Ton.Kit.wt cells
[7] = molecular target: T1, wt KIT (Ton.Kit.wt Ba/F3 cells) (Homo sapiens, UniProt P10721); assay: KIT phosphorylation by immunoprecipitation and Western blotting in Ton.Kit.wt cells; format: cell-based; conditions: 1 μM, 4 hours; doxycycline, SCF 100 ng/ml
T1 construct: expressed in transfected cells
Protocol: (§1) In case of Ton.Kit.wt cells, KIT phosphorylation is induced by adding rhSCF (100 ng/ml). Immunoprecipitation (IP) and Western blotting are performed as described previously.^32 In brief, cells are washed at 4° C. and resuspended in RIPA buffer (1 ml buffer per 10^8 cells) consisting of 50 mM Tris, 150 mM sodium chloride (NaCl), 1% nonidet P40 (NP-40), 0.25% deoxycholic acid, 0.1% sodium dodecyl sulfate (SDS), 1 mM ethylene-diamine-tetraacetic acid (EDTA), 1 mM sodium fluoride (NaF), 1 mM phenylmethylsulfonyl fluoride (PMSF) and 1 mM sodium orthovanadate (Na3VO4). After incubation in RIPA buffer supplemented with proteinase inhibitor cocktail (Roche) for 30 minutes at 4° C. (vortexed vigorously every 5 minutes), lysates are centrifuged to remove insoluble particles. For IP, lysates from 1×10^7 cells are incubated with anti-KIT antibody SR1^37 (kindly provided by Dr. V. Broudy, University of Washington, Seattle, Wash.) or with the anti-KIT antibody 1C1^38 (kindly provided by Dr. H.-J. Bühring, University of Tübingen, Germany) and protein G Sepharose beads (Amersham) in IP-buffer (50 mM Tris-Cl, pH 7.4, 150 mM NaCl, 100 mM NaF, and 1% NP40) at 4° C. overnight. Then, beads are washed 3 times in IP buffer. […] Membranes are blocked for 1 hour in 5% blocking reagent (Roche) and are then incubated with anti-KIT antibody 1C1 or with the monoclonal antibody 4G10 (Upstate Biotechnology, Lake Placid, N.Y.) directed against tyrosine-phosphorylated proteins, at 4° C. overnight. Antibody reactivity is made visible by sheep anti-mouse IgG antibody and Lumingen PS-3 detection reagent (both from Amersham), and a CL-Xposure film (Pierce Biotechnology, Rockford, Ill.).
(§2) In case of Ton.Kit.wt cells, KIT phosphorylation was induced by adding rhSCF (100 ng/ml). […]

[8] = tested on: non-transfected Ba/F3 cells; conditions: not shown
[9] = tested on: HMC-1.2 cells; assay: Cell surface antigen expression on HMC-1.2 cells by flow cytometry; format: cell-based, human; conditions: 24 hours
Protocol: After incubation with drugs, HMC-1 cells are washed and subjected to single color flow cytometry using PE-conjugated antibodies against MC antigens known to be overexpressed on neoplastic MC in SM (compared to normal MC) and/or are expressed at an early stage of mastopoiesis (CD2, CD13, CD63, CD117, CD164, CD203c).^45-47 Flow cytometry is performed on a FACSan (Becton Dickinson) as described previously.^29
Flow cytometry was performed on a FACScan (Becton Dickinson) as described.^30,37,51

[10] = molecular target: T2, KIT V560G (HMC-1.1 cells) (Homo sapiens, UniProt P10721, V560G); assay: KIT phosphorylation by immunoprecipitation and Western blotting in HMC-1.1 cells; format: cell-based; conditions: 1 μM, 4 hours
T2 construct: endogenous in cells; host or cells: HMC-1.1 (subclone of the human mast cell leukemia line HMC-1)
Protocol: as §1, §2

[11] = tested on: HMC-1.1 cells
[12] = Human trials, Maximum Tolerated Dose; format: in vivo
[13] = tested on: normal bm cells; assay: 3H-thymidine uptake in normal bone marrow cells (control); format: cell-based, human; conditions: control sample, not shown
Protocol: Both patients gave informed consent before bm puncture. The bm aspirate is obtained from the posterior iliac crest and collected in syringes containing preservative-free heparin. Cells are layered over Ficoll to isolate mononuclear cells (MNC).
In select experiments, HMC-1 cells (both subclones) are incubated with various concentrations of IFNα (0.1-500,000 U/ml) or 2CdA (0.005-10 μg/ml).
The bm aspirate samples were collected in syringes containing preservative-free heparin. Cells were layered over Ficoll to isolate mononuclear cells (MNC). […] Both patients gave written informed consent before bm puncture or blood donation. The study was approved by the local institutional review board and was conducted in accordance with the declaration of Helsinki.
Filters were air-dried, and the bound radioactivity was counted in a β-counter (Top-Count NXT, Packard Bioscience). […] All experiments were performed in triplicates.

[14] = tested on: HMC-1.2 cells; assay: Apoptosis in HMC-1.2 cells (light and electron microscopy, annexin V/PI, Tunel); format: cell-based, human; conditions: 1 μM, 24 hours
Protocol: For flow cytometric determination of apoptosis and cell viability, combined annexin V/propidium iodide staining is performed. […] Thereafter, cells are washed in PBS and then are incubated with annexinV-APC (Alexis Biochemicals, Lausen, Switzerland) in binding buffer containing HEPES (10 mM, pH 7.4), NaCl (140 mM), and CaCl2 (2.5 mM). Thereafter, propidium iodide (1 μg/ml) is added. Cells are then washed and analyzed by flow cytometry on a FACSCalibur (Becton Dickinson).

[15] = 1 μM, dasatinib various concentrations
[16] = PKC412 1 μM, dasatinib various concentrations

T1 sequence (P10721 26-976): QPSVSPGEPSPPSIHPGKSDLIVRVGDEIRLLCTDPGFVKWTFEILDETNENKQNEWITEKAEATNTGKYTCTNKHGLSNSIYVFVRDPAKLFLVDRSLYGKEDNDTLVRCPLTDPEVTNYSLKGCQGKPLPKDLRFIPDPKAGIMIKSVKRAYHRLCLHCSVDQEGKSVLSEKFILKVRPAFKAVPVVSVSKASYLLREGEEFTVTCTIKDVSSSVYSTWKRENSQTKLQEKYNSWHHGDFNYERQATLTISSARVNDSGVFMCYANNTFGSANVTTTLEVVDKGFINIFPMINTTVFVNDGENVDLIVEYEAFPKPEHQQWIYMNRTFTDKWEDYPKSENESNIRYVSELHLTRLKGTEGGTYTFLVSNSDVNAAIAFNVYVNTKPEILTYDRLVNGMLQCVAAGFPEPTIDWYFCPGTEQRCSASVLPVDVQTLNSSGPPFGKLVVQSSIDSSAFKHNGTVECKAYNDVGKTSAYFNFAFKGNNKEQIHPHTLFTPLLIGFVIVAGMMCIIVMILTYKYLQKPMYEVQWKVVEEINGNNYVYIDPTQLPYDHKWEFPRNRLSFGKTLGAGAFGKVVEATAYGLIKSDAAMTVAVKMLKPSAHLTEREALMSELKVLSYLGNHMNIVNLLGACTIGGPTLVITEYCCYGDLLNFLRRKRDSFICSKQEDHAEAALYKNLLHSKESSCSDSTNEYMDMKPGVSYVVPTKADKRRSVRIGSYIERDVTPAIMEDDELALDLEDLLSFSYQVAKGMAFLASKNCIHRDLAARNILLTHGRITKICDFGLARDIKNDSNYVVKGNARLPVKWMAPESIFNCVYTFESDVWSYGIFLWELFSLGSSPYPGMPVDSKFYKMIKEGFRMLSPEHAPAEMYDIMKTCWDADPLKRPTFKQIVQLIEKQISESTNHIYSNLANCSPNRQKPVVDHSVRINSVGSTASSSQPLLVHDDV
T2 sequence (P10721 26-976 V560G): as the sequence (P10721 26-976) above, with V535G counted along it

Row | Compound | IC50 [3] | apoptosis in HMC-1.2 cells by light microscopy [4] | apoptosis in HMC-1.1 cells by Tunel assay [5] | apoptosis in HMC-1.1 cells by light microscopy [5] | IC50 [6] | SCF-induced phosphorylation of KIT in Ton.Kit.wt cells [7] | expression of CD antigens on HMC-1.2 cells ([9]; 1 μM) | expression of KIT (CD117) on HMC-1.2 cells [9, 15] | KIT phosphorylation in HMC-1.1 cells [10] | IC50 [11] | apoptosis in HMC-1.2 cells by annexinV/propidium iodide flow cytometry and Tunel assay [14] | other results
1 | Nc1nc(Cl)nc2c1ncn2[C@H]1C[C@H](O)[C@@H](CO)O1 [2CdA, 2-chlorodeoxyadenosine] | – | – | – | – | – | – | – | – | – | – | – | IC50 [1]: 0.01 to 0.02 µg/mL (≈ 0.035 to 0.07 µM); IC50 [2]: 0.1 to 0.3 µg/mL (≈ 0.35 to 1.05 µM)
2 | Cc1cn(-c2cc(NC(=O)c3ccc(C)c(Nc4nccc(-c5cccnc5)n4)c3)cc(C(F)(F)F)c2)cn1 [AMN107, 4-Methyl-3-[[4-(3-pyridinyl)-2-pyrimidinyl]amino]-N-[5-(4-methyl-1H-imidazol-1-yl)-3-(trifluoromethyl)phenyl]benzamide] | 1000 to 5000 nM | induce apoptosis in both HMC-1 subclones in a dose-dependent manner | potent apoptosis-inducing effects only in HMC-1.1 cells | induce apoptosis in both HMC-1 subclones in a dose-dependent manner | 30 to 300 nM | decreased the SCF-induced phosphorylation of KIT | no significant effects | slight decrease | strongly reduced KIT phosphorylation | 3 to 10 nM and 5 to 10 nM | – | growth-inhibitory effect on control (non-transfected) Ba/F3 cells [8]: neither doxycycline (1 μg/ml), nor the TK inhibitors (imatinib, PKC412, AMN107), showed growth-inhibitory effects
3 | CO[C@@H]1[C@H](N(C)C(=O)c2ccccc2)C[C@H]2O[C@]1(C)n1c3ccccc3c3c4c(c5c6ccccc6n2c5c31)C(=O)NC4 [PKC412, N-[(9S,10R,11R,13R)-2,3,10,11,12,13-hexahydro-10-methoxy-9-methyl-1-oxo-9,13-epoxy-1H,9H-diindolo[1,2,3-gh:3′,2′,1′-1m]pyrrolo[3,4-j][1,7]benzodiazonin-11-yl]-N-methylbenzamide] | – | induce apoptosis in both HMC-1 subclones in a dose-dependent manner; also recorded: also found to induce apoptosis in both HMC-1 subclones | also induced apoptosis in both cell lines; also recorded: produced apoptosis in most HMC-1.1 and HMC-1.2 cells | induce apoptosis in both HMC-1 subclones in a dose-dependent manner; also recorded: also found to induce apoptosis in both HMC-1 subclones | – | decreased the SCF-induced phosphorylation of KIT | – | slight decrease | decreased phosphorylation of KIT | – | induce apoptosis in HMC-1.2; also recorded: also induced apoptosis in both cell lines; also recorded: produced apoptosis in most HMC-1.1 and HMC-1.2 cells | Maximum Tolerated Dose (MTD), total dose [12]: 225 mg/day; apoptosis in HMC-1.2 cells by electron microscopy ([4]; 1 μM): produce apoptosis in HMC-1.2 cells; effect on 3H-thymidine uptake in normal bm cells [13]: showed no effect; also recorded: no effects; expression of CD203c on HMC-1.2 cells ([9]; 1 μM): no significant effects; expression of CD63 on HMC-1.2 cells ([9]; PKC412 1 μM or various, dasatinib various concentrations): significant decrease; also recorded: dose-dependently decreased expression of CD63; expression of CD2 on HMC-1.2 cells [9, 16]: significant decrease; expression of CD13 on HMC-1.2 cells [9, 16]: no significant effects; expression of CD164 on HMC-1.2 cells [9, 16]: significant decrease
4 | Cc1nc(Nc2ncc(C(=O)Nc3c(C)cccc3Cl)s2)cc(N2CCN(CCO)CC2)n1 [dasatinib, reference compound] | 200 to 500 nM | – | – | – | 1 to 10 nM | – | – | – | – | – | – | –
5 | Cc1ccc(NC(=O)c2ccc(CN3CCN(C)CC3)cc2)cc1Nc1nccc(-c2cccnc2)n1 [imatinib, reference compound] | – | showed no effects on HMC-1.2 cells | induced apoptosis only in HMC-1.1 cells; also recorded: potent apoptosis-inducing effects only in HMC-1.1 cells | produce apoptosis in HMC-1.1 cells | – | decreased the SCF-induced phosphorylation of KIT | no significant effects | slight decrease | reduced KIT phosphorylation | 10 to 30 nM | showed no effects on HMC-1.2 cells | antiproliferative effect on HMC-1.2 cells ([3]; 48 hours): no significant antiproliferative effects

From patent US8076321B2, “Compositions for treatment of systemic mastocytosis” (priority 2005, dated 2011)
